{
  "source": "ChEMBL document CHEMBL2202971",
  "about": "“Synthesis and anti-hyperglycemic activity of hesperidin derivatives” (2012)",
  "key": {"Mus musculus [1]": {"test_system": "Mus musculus", "assay": "Antihyperglycemic activity in streptozotocin-induced diabetic Kunming mouse model assessed as blood glucose level at 100 mg/kg/day, po for 10 days measured on day 7 post dose (reference value: 23.6 +/- 4.25 mM)", "type": "functional"}, "Mus musculus [2]": {"test_system": "Mus musculus", "assay": "Antihyperglycemic activity in streptozotocin-induced diabetic Kunming mouse model assessed as blood glucose level at 100 mg/kg/day, po for 10 days measured on day 10 post dose (reference value: 23.03 +/- 3.94 mM)", "type": "functional"}, "Mus musculus [3]": {"test_system": "Mus musculus", "assay": "Antihyperglycemic activity in streptozotocin-induced diabetic Kunming mouse model assessed as blood glucose level at 100 mg/kg/day, po for 10 days measured on day 1 post dose (reference value: 19.93 +/- 6.36 mM)", "type": "functional"}, "HepG2": {"test_system": "HepG2", "assay": "Induction of glucose consumption in human HepG2 cells at 0.1 mM assessed as glucose concentration incubated for 36 hrs", "type": "functional"}, "Mus musculus [4]": {"test_system": "Mus musculus", "assay": "Antihyperglycemic activity in streptozotocin-induced diabetic Kunming mouse model assessed as blood glucose level at 100 mg/kg/day, po for 10 days measured on day 3 post dose (reference value: 23.97 +/- 3.79 mM)", "type": "functional"}, "[5]": {"assay": "Inhibition of alpha glucosidase at 1 mM using pNPG substrate incubated for 60 mins"}, "Mus musculus [6]": {"test_system": "Mus musculus", "assay": "Antihyperglycemic activity in streptozotocin-induced diabetic Kunming mouse model assessed as blood glucose level at 50 mg/kg/day, po for 10 days measured on day 7 post dose (reference value: 23.6 +/- 4.25 mM)", "type": "functional"}, "Mus musculus [7]": {"test_system": "Mus musculus", "assay": "Antihyperglycemic activity in streptozotocin-induced diabetic Kunming mouse model assessed as blood glucose level at 50 mg/kg/day, po for 10 days measured on day 3 post dose (reference value: 23.97 +/- 3.79 mM)", "type": "functional"}, "Mus musculus [8]": {"test_system": "Mus musculus", "assay": "Antihyperglycemic activity in streptozotocin-induced diabetic Kunming mouse model assessed as blood glucose level at 50 mg/kg/day, po for 10 days measured on day 10 post dose (reference value: 23.03 +/- 3.94 mM)", "type": "functional"}, "Mus musculus [9]": {"test_system": "Mus musculus", "assay": "Antihyperglycemic activity in streptozotocin-induced diabetic Kunming mouse model assessed as blood glucose level at 50 mg/kg/day, po for 10 days measured on day 1 post dose (reference value: 19.93 +/- 6.36 mM)", "type": "functional"}},
  "note": "Active and inactive are the calls of the source. No cut-off for these calls is given here.",
  "data": [
    {"molecule": "CN(C)C(=N)NC(=N)N", "note": "[METFORMIN]", "values": [
      {"measurement": "Activity", "setting": "Mus musculus [1]", "value": 14.47, "unit": "mM"},
      {"measurement": "Activity", "setting": "Mus musculus [2]", "value": 10, "unit": "mM"},
      {"measurement": "Activity", "setting": "Mus musculus [3]", "value": 16.98, "unit": "mM"},
      {"measurement": "Activity", "setting": "HepG2", "value": 2.11, "unit": "mM"},
      {"measurement": "Activity", "setting": "Mus musculus [4]", "value": 20.72, "unit": "mM"}
    ]},
    {"molecule": "CCCCOc1cc(O)c2c(c1)OC(c1ccc(OC)c(OC)c1)CC2=O", "note": "(stereo not given)", "values": [
      {"measurement": "inhibition", "setting": "[5]", "value": "Active"}
    ]},
    {"molecule": "CCC(=O)Oc1cc(O)c2c(c1)OC(c1ccc(OC)c(OC)c1)CC2=O", "note": "(stereo not given)", "values": [
      {"measurement": "inhibition", "setting": "[5]", "value": "Active"}
    ]},
    {"molecule": "COc1ccc(C2CC(=O)c3c(O)cc(OCc4ccccc4)cc3O2)cc1O", "note": "(stereo not given)", "values": [
      {"measurement": "Activity", "setting": "Mus musculus [6]", "value": 19.35, "unit": "mM"},
      {"measurement": "Activity", "setting": "Mus musculus [1]", "value": 19.18, "unit": "mM"},
      {"measurement": "Activity", "setting": "Mus musculus [7]", "value": 21.25, "unit": "mM"},
      {"measurement": "inhibition", "setting": "[5]", "value": 55, "unit": "%"},
      {"measurement": "Activity", "setting": "Mus musculus [2]", "value": 13.23, "unit": "mM"},
      {"measurement": "Activity", "setting": "Mus musculus [8]", "value": 20.1, "unit": "mM"},
      {"measurement": "Activity", "setting": "Mus musculus [3]", "value": 16.78, "unit": "mM"},
      {"measurement": "Activity", "setting": "HepG2", "value": 1.78, "unit": "mM"},
      {"measurement": "Activity", "setting": "Mus musculus [9]", "value": 17.5, "unit": "mM"},
      {"measurement": "Activity", "setting": "Mus musculus [4]", "value": 20.12, "unit": "mM"}
    ]},
    {"molecule": "COc1ccc(C2CC(=O)c3c(O)cc(OC(=O)c4ccccc4)cc3O2)cc1O", "note": "(stereo not given)", "values": [
      {"measurement": "inhibition", "setting": "[5]", "value": "Active"}
    ]},
    {"molecule": "COc1ccc(C2CC(=O)c3c(O)cc(O)cc3O2)cc1O", "note": "(stereo not given)", "values": [
      {"measurement": "inhibition", "setting": "[5]", "value": "Active"}
    ]},
    {"molecule": "COc1ccc(C2CC(=O)c3c(O)cc(OC(C)=O)cc3O2)cc1O", "note": "(stereo not given)", "values": [
      {"measurement": "inhibition", "setting": "[5]", "value": "Active"}
    ]},
    {"molecule": "C[C@H]1O[C@H](O[C@H]2[C@H](O)[C@@H](O)[C@@H](O[C@H]3[C@H](O)[C@@H](O)C(O)O[C@@H]3CO)O[C@@H]2CO)[C@H](O)[C@@H](O)[C@@H]1N[C@H]1C=C(CO)[C@@H](O)[C@H](O)[C@H]1O", "note": "(stereo not given in full)", "values": [
      {"measurement": "inhibition", "setting": "[5]", "value": 54.8, "unit": "%"}
    ]},
    {"molecule": "COc1ccc(C2CC(=O)c3c(O)cc(OCCCCBr)cc3O2)cc1OC", "note": "(stereo not given)", "values": [
      {"measurement": "inhibition", "setting": "[5]", "value": "Active"}
    ]},
    {"molecule": "CCC(=O)Oc1cc(O)c2c(c1)OC(c1ccc(OC)c(O)c1)CC2=O", "note": "(stereo not given)", "values": [
      {"measurement": "inhibition", "setting": "[5]", "value": "Active"}
    ]},
    {"molecule": "COc1ccc(C2CC(=O)c3c(O)cc(O)cc3O2)cc1OC", "note": "(stereo not given)", "values": [
      {"measurement": "inhibition", "setting": "[5]", "value": "Active"}
    ]},
    {"molecule": "COc1ccc(C2CC(=O)c3c(O)cc(OCc4ccccc4)cc3O2)cc1OC", "note": "(stereo not given)", "values": [
      {"measurement": "inhibition", "setting": "[5]", "value": 53.3, "unit": "%"}
    ]}
  ]
}
